Data on 24 compounds can be found in patent US20230114241A1, “METHODS OF TREATING EPILEPSY USING THE SAME” (Trevena, Inc., priority 2019, published 2023).

Structures are written as SMILES.

The target in experiment [1] is T1, human sphingosine-1-phosphate receptor 1 (S1P1) (Homo sapiens, UniProt P21453). Nature of the experiment: Inhibition of cAMP production (HTRF cAMP HiRange), S1P1 CHO-K1 cells. The settings on record: for Emax: CHO-K1, efficacy normalized to maximum efficacy of fingolimod, read-out: hS1P1 CAMP SPAN; for EC50: read-out: hS1P1 CAMP pEC50 (converted). It is filed as cell-based. The procedure, abridged: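 Intracellular cAMP changes read by TR-FRET (HTRF HiRange, 1 h room temperature) after 30 min compound exposure at 37 °C. Cells: overnight-plated CHO-K1 stably expressing tagged human S1P1 with EA-β-arrestin2. Responses normalized to fingolimod.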
For orientation: Cyclic AMP is a second messenger, typically raised through Gs and lowered through Gi signalling.
Target sequence in this assay (P21453 whole entry): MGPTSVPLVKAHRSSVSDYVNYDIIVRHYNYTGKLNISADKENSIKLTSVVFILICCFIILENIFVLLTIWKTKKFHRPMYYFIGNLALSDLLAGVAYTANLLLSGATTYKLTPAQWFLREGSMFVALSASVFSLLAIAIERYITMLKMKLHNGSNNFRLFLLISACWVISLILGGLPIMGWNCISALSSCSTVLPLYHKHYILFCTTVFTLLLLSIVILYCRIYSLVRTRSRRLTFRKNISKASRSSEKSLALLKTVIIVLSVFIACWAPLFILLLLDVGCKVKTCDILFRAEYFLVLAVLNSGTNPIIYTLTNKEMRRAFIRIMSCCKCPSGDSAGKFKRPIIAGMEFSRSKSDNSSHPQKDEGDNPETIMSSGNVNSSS

Experiment [2] has as its target T1, human sphingosine-1-phosphate receptor 1 (S1P1). The experiment is described as follows: β-Arrestin2 recruitment assay (PathHunter), S1P1 CHO-K1 cells. It is filed as cell-based. The settings on record: for Emax: efficacy normalized to maximum efficacy of fingolimod, read-out: hS1P1 B-arrestin2 SPAN; for EC50: β-arrestin2 recruitment, read-out: hS1P1 B-arrestin2 pEC50 (converted). The method, boiled down: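 Agonist-driven β-arrestin2 recruitment measured by β-galactosidase complementation after 60 min compound exposure at 37 °C and 1 h detection at room temperature. Cells: stable CHO-K1 line expressing tagged human S1P1 with EA-β-arrestin2, plated the night before. Data expressed relative to fingolimod.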
Target sequence in this assay (P21453 whole entry): as above
Target sequence in this assay (P32121 whole entry partner): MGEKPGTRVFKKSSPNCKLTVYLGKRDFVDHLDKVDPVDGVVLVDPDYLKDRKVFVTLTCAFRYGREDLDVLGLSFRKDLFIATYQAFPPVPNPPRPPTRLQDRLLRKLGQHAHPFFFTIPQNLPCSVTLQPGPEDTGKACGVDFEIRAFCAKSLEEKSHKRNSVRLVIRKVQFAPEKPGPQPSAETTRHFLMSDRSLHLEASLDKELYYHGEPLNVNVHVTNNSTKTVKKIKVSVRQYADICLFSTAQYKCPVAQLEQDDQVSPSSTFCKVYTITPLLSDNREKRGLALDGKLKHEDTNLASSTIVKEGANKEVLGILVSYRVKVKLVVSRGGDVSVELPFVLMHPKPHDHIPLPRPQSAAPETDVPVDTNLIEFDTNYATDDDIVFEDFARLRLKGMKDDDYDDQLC
For orientation: Recruitment of arrestin is a read-out of receptor activation apart from second messengers.

Where [3] appears, read: inhibition of cAMP production, potency.
Setting [4] is: CHO-K1, β-arrestin2 recruitment.
Where [5] appears, read: inhibition of cAMP production, S1P1.

For `CCC1(CC)CC(=O)c2cc(-c3nc(-c4ccc5c(c4)nnn5C(C)C)ns3)ccc2O1` [Compound 29, 2,2-diethyl-6-(3-(1-isopropyl-1H-benzo[d][1,2,3]triazol-5-yl)-1,2,4-thiadiazol-5-yl)chroman-4-one], the Emax in experiment [1] (inhibition of cAMP production) and in experiment [2] (setting [4]) was below 75% throughout. The EC50 in experiment [1] (setting [3]) is above 0.316 µM; in experiment [2] (potency), above 10 µM.

As for `CC(C)n1ccc2nc(-c3nc(-c4ccccc4Br)cs3)ccc21` [Compound 412, 4-(2-bromophenyl)-2-(1-isopropyl-1H-pyrrolo[3,2-b]pyridin-5-yl)thiazole], the Emax was above 75% in experiment [1] and below 75% in experiment [2] (CHO-K1). In addition, the EC50 in experiment [1] (setting [5]) is above 0.316 µM; in experiment [2] (S1P1), above 10 µM.

With `CCC1(CC)CC(=O)c2cc(-c3nc(-c4ccnc(S(N)(=O)=O)c4)no3)ccc2O1` [Compound 616, 4-(5-(2,2-diethyl-4-oxochroman-6-yl)-1,2,4-oxadiazol-3-yl)pyridine-2-sulfonamide], the Emax in experiment [1] and in experiment [2] (CHO-K1) was above 75% each time. The results for the EC50 in experiment [1] (setting [5]) and in experiment [2] (S1P1) were below 0.316 µM and below 10 µM, respectively.

Regarding `Cc1ccncc1-c1noc(-c2cnc3c(c2)nnn3C(C)C)n1` [Compound 414, 4-methyl-3-{5-[3-(propan-2-yl)-3H-[1,2,3]triazolo[4,5-b]pyridin-6-yl]-1,2,4-oxadiazol-3-yl}pyridine], the Emax in experiment [1] is below 75%; in experiment [2] (CHO-K1), above 75%. For the same compound, the figures for the EC50 in experiment [1] (setting [5]) and in experiment [2] (S1P1) were below 0.316 µM and above 10 µM, respectively.

On to `COc1cccc(-c2csc(-c3ccc4c(ccn4C(C)C)n3)n2)c1` [Compound 410, 2-(1-isoproplpyrrolo[3,2-b]pyridin-5-yl)-4-(3-methoxyphenyl)thiazole], for which the Emax in experiment [1] and in experiment [2] (CHO-K1) was below 75% throughout. In addition, the EC50 was above 0.316 µM in experiment [1] (setting [5]) and above 10 µM in experiment [2] (S1P1).

As for `COc1ccccc1-c1noc(-c2ccc3[nH]cnc3c2)n1` [Compound 369, 5-(1H-benzo[d]imidazol-5-yl)-3-(2-methoxy-phenyl)-1,2,4-oxadiazole], the Emax in experiment [1] (inhibition of cAMP production) and in experiment [2] (setting [4]) was below 75% in each case. In addition, the values for the EC50 in experiment [1] (setting [3]) and in experiment [2] (potency) were above 0.316 µM and above 10 µM, respectively.

In the case of `CCC1(CC)CC(=O)c2cc(-c3nc(-c4ccc5cnccc5c4)no3)ccc2O1` [Compound 522, 2,2-diethyl-6-(3-(isoquinolin-6-yl)-1,2,4-oxadiazol-5-yl)chroman-4-one], the Emax in experiment [1] and in experiment [2] (CHO-K1) was above 75% throughout. Also, the EC50 was above 0.316 µM in experiment [1] (setting [5]) and above 10 µM in experiment [2] (S1P1).

For `N#Cc1cc(-c2nnc(-c3ccc4[nH]c(=O)oc4c3)o2)ccc1NCCF` [Compound 487, 2-[(2-fluoroethyl)amino]-5-[5-(2-oxo-2,3-dihydro-1,3-benzoxazol-6-yl)-1,3,4-oxadiazol-2-yl]benzonitrile], the Emax in experiment [1] and in experiment [2] (CHO-K1) was above 75% in each case. Further, the EC50 in experiment [1] (setting [5]) was above 0.316 µM; in experiment [2] (S1P1) it was below 10 µM.

For the compound `CCCCC1CC(=O)c2ccc(-c3nc(-c4cccnc4)no3)cc2O1` (stereo not drawn) [Compound 633, 2-butyl-7-[3-(pyridin-3-yl)-1,2,4-oxadiazol-5-yl]-3,4-dihydro-2H-1-benzopyran-4-one], the Emax in experiment [1] and in experiment [2] (CHO-K1) was below 75% throughout. Moreover, the EC50 in experiment [1] (setting [5]) is above 0.316 µM; in experiment [2] (S1P1) it was above 10 µM.

As for `CCC1(CC)CC(=O)c2cc(-c3nc(-c4ccnc(NC(C)=O)c4)no3)ccc2O1` [Compound 512, N-(4-(5-(2,2-diethyl-4-oxochroman-6-yl)-1,2,4-oxadiazol-3-yl)pyridin-2-yl)acetamide], the Emax in experiment [1] is above 75%; in experiment [2] (CHO-K1), below 75%. Further, the EC50 in experiment [1] (setting [5]) is below 0.316 µM; in experiment [2] (S1P1) it was below 10 µM.

As for `CC(C)n1nnc2cc(-c3nc(-c4sccc4Cl)co3)ccc21` [Compound 463, 5-[4-(3-chlorothiophen-2-yl)-1,3-oxazol-2-yl]-1-(propan-2-yl)-1H-1,2,3-benzotriazole], the Emax in experiment [1] and in experiment [2] (CHO-K1) was above 75% throughout. The EC50 in experiment [1] (setting [5]) was below 0.316 µM; in experiment [2] (S1P1), below 10 µM.

With `CCC1(CC)CC(=O)c2cc(-c3nc(-c4cccc(O)c4)no3)ccc2O1` [Compound 227, 2,2-diethyl-6-[3-(3-hydroxyphenyl)-1,2,4-oxadiazol-5-yl]chroman-4-one], the results for the Emax in experiment [1] (inhibition of cAMP production) and in experiment [2] (setting [4]) were below 75% and above 75%, respectively. Further, the EC50 was below 0.316 µM in experiment [1] (setting [3]) and above 10 µM in experiment [2] (potency).

Take `CC(C)Nc1ccc(-c2nnc(-c3ccc4c(c3)CCC(=O)N4)o2)cc1C#N` [Compound 473, 5-[5-(2-oxo-1,2,3,4-tetrahydroquinolin-6-yl)-1,3,4-oxadiazol-2-yl]-2-[(propan-2-yl)amino]benzonitrile]: the Emax in experiment [1] and in experiment [2] (CHO-K1) was above 75% each time. In addition, the EC50 in experiment [1] (setting [5]) is below 0.316 µM; in experiment [2] (S1P1), below 10 µM.

For `Brc1ccccc1-c1nc(-c2ccc3c(c2)nnn3C2CCCC2)no1` [Compound 40, 5-(2-bromophenyl)-3-(1-cyclopentyl-1H-benzo[d][1,2,3]triazol-5-yl)-1,2,4-oxadiazole], the Emax in experiment [1] (inhibition of cAMP production) and in experiment [2] (setting [4]) was above 75% in each case. The EC50 in experiment [1] (setting [3]) was below 0.316 µM; in experiment [2] (potency) it was below 10 µM.

For the compound `CC(C)n1nnc2cc(-c3nc(-c4ccc(Oc5ccccc5)cc4)no3)ccc21` [Compound 15, 5-[3-(4-phenoxyphenyl)-1,2,4-oxadiazol-5-yl]-1-(propan-2-yl)-1H-1,2,3-benzotriazole], the figures for the Emax in experiment [1] (inhibition of cAMP production) and in experiment [2] (setting [4]) were above 75% and below 75%, respectively. For the same compound, the values for the EC50 in experiment [1] (setting [3]) and in experiment [2] (potency) were above 0.316 µM and above 10 µM, respectively.

In the case of `Cc1ccncc1-c1nc(-c2ccc3c(c2)nnn3CC(C)(C)CO)no1` [Compound 541, 2,2-dimethyl-3-(5-(5-(4-methylpyridin-3-yl)-1,2,4-oxadiazol-3-yl)-1H-benzo[d] [1,2,3]triazol-1-yl)propan-1-ol], the Emax in experiment [1] and in experiment [2] (CHO-K1) was below 75% in each case. Moreover, the values for the EC50 in experiment [1] (setting [5]) and in experiment [2] (S1P1) were above 0.316 µM and above 10 µM, respectively.

As for `CC(C)n1nnc2cc(-c3noc(-c4ccc(-c5ccccc5)cc4)n3)ccc21` [Compound 248, 5-([1,1′-biphenyl]-4-yl)-3-(1-isopropyl-1H-benzo[d][1,2,3]triazol-5-yl)-1,2,4-oxadiazole], the Emax in experiment [1] (inhibition of cAMP production) and in experiment [2] (setting [4]) was below 75% throughout. For the same compound, the EC50 was above 0.316 µM in experiment [1] (setting [3]) and above 10 µM in experiment [2] (potency).

Turning to `CCC1(CC)CC(=O)c2cc(-c3nc(-c4cccnc4O)no3)ccc2O1` [Compound 258, 2,2-diethyl-6-(3-(2-hydroxypyridin-3-yl)-1,2,4-oxadiazol-5-yl)chroman-4-one], the Emax in experiment [1] (inhibition of cAMP production) and in experiment [2] (setting [4]) was below 75% throughout. Also, the EC50 in experiment [1] (setting [3]) is above 0.316 µM; in experiment [2] (potency), above 10 µM.

Take `CCC1(CC)C/C(=N\O)c2cc(-c3nc(-c4cccnc4)no3)ccc2O1` [Compound 431, N-[(4E)-2,2-diethyl-6-[3-(pyridin-3-yl)-1,2,4-oxadiazol-5-yl]-3,4-dihydro-2H-1-benzopyran-4-ylidene]hydroxylamine]: the Emax in experiment [1] and in experiment [2] (CHO-K1) was above 75% each time. Further, the EC50 in experiment [1] (setting [5]) is above 0.316 µM; in experiment [2] (S1P1) it was above 10 µM.

Regarding `COc1ccccc1-c1noc(-c2ccc3[nH]ccc3c2)n1` [Compound 368, 5-(1H-indol-5-yl)-3-(2-methoxyphenyl)-1,2,4-oxadiazole], the Emax in experiment [1] (inhibition of cAMP production) and in experiment [2] (setting [4]) was below 75% in each case. Moreover, the results for the EC50 in experiment [1] (setting [3]) and in experiment [2] (potency) were above 0.316 µM and above 10 µM, respectively.

For `O=C1CC2(CCOCC2)Oc2ccc(-c3nc(-c4ccncc4)no3)cc21` [Compound 148, 6-[3-(pyridin-4-yl)-1,2,4-oxadiazol-5-yl]-3,4-dihydrospiro [1-benzopyran-2,4′-oxane]-4-one], the Emax in experiment [1] (inhibition of cAMP production) and in experiment [2] (setting [4]) was below 75% each time. The EC50 is above 0.316 µM in experiment [1] (setting [3]) and above 10 µM in experiment [2] (potency).

`Cc1ccccc1-c1noc(-c2ccc3c(c2)nnn3C2CC2)n1` [Compound 171, 1-cyclopropyl-5-[3-(2-methylphenyl)-1,2,4-oxadiazol-5-yl]-1H-1,2,3-benzotriazole]: the Emax in experiment [1] (inhibition of cAMP production) and in experiment [2] (setting [4]) was above 75% throughout. In addition, the results for the EC50 in experiment [1] (setting [3]) and in experiment [2] (potency) were below 0.316 µM and below 10 µM, respectively.

With `CCC1(CC)CC(=O)c2cc(-c3nc(-c4ccnc(NS(C)(=O)=O)c4)no3)ccc2O1` [Compound 556, N-(4-(5-(2,2-diethyl-4-oxochroman-6-yl)-1,2,4-oxadiazol-3-yl)pyridin-2-yl)methanesulfonamide], the Emax was above 75% in experiment [1] and below 75% in experiment [2] (CHO-K1). The EC50 in experiment [1] (setting [5]) was below 0.316 µM; in experiment [2] (S1P1) it was below 10 µM.

For `Cc1ccccc1-c1noc(-c2ccc3c(c2)CCC(=O)N3)n1` [Compound 365, 6-[3-(2-methylphenyl)-1,2,4-oxadiazol-5-yl]-1,2,3,4-tetrahydroquinolin-2-one], the Emax in experiment [1] (inhibition of cAMP production) is above 75%; in experiment [2] (setting [4]), below 75%. Besides, the results for the EC50 in experiment [1] (setting [3]) and in experiment [2] (potency) were above 0.316 µM and below 10 µM, respectively.
